In experiment [1] the test system is MRSA USA300. The experiment can be described thus: Antibacterial activity assay (MIC by broth microdilution, MBC by subculture). It counts as cell-based, Staphylococcus aureus. As to the method: (§1) The antimicrobial activity was based on MIC and MBC; MIC is the minimum inhibitory concentration and MBC is the minimum bactericidal concentration. The MIC of individual test agents against MRSA USA300 strains was determined using the broth microdilution method according to CLSI guidelines. Briefly, overnight bacterial cultures in LB medium were diluted 1:50 in fresh LB medium and incubated at 37° C. until reaching an OD600 of 0.5 to 0.6. Bacterial suspensions were diluted to a final concentration of 5×10^5 cfu/mL in fresh CAMHB and then exposed to each test agent at increasing doses in triplicate in 96-well plates for 24 hours at 37° C. The MIC of each agent was defined as the lowest concentration without visible bacterial growth. […] The lowest broth dilution that had no viable bacteria was considered the MBC.
Then, the combination effect was measured by calculating their corresponding fractional inhibitory concentration index (FICI) with the equation ΣFIC (FICi)=FICA+FICB=(CombA/MICA)+(CombB/MICB), where MICA and MICB are the MICs of drugs A and B alone, respectively, and CombA and CombB are the concentrations of drugs A and B in combination, respectively. […] was defined as an FICI≤0.5, no interaction was defined as an FICI>0.5-4.0, and antagonism was defined as an FICI>4.

Experiment [2] concerns S. aureus ATCC29213. The experiment can be described thus: Antibacterial activity assay (MIC, broth microdilution). It is filed as cell-based, Staphylococcus aureus. As to conditions: for MIC: Staphylococcus aureus.
Experiment [3] has as its system S. aureus NCTC8325. The experiment is described as above. It is filed as cell-based, Staphylococcus aureus. The following applies: for MIC: Staphylococcus aureus.
Experiment [4] deals with MRSA ATCC33591. Described as above. It counts as cell-based, Staphylococcus aureus. The following applies: for MIC: Staphylococcus aureus.
In experiment [5] the test system is MRSA ATCC33592. Described as above. It is filed as cell-based, Staphylococcus aureus. The following applies: for MIC: Staphylococcus aureus.
The subject of experiment [6] is MRSA ATCC43300. The description is as above. As to conditions: for MIC: Staphylococcus aureus. It is filed as cell-based, Staphylococcus aureus.
Experiment [7] relates to MRSA ATCC49476. Described as above. It counts as cell-based, Staphylococcus aureus. As to conditions: for MIC: Staphylococcus aureus.
Experiment [8] has as its system MRSA SCCmec VT. Described as above. It counts as cell-based, Staphylococcus aureus. As to conditions: for MIC: Staphylococcus aureus, MRSA.
For experiment [9], the system named is VRSA SJC1200. Described as above. It counts as cell-based, Staphylococcus aureus. The following applies: for MIC: Staphylococcus aureus, VRSA.
For experiment [10], the system named is S. aureus DAP-NS. The experiment is described as above. It counts as cell-based, Staphylococcus aureus. The following applies: for MIC: Staphylococcus aureus.
The test system of experiment [11] is antibiotic-resistant Staphylococcus aureus. The experiment can be described thus: MIC against all strains of Table 4. It counts as cell-based. As to conditions: agent alone, all the bacterial strains under the examination. As to the method: as §1
Then, the combination effect was measured by calculating their corresponding fractional inhibitory concentration index (FICI) with the equation ΣFIC (FICi)=FICA+FICB=(CombA/MICA)+(CombB/MICB), where MICA and MICB are the MICs of drugs A and B alone, respectively, and CombA and CombB are the concentrations of drugs A and B in combination, respectively. […]
The antibacterial activity of the SC5005-DHA composition against a series of antibiotic-resistant Staphylococcus aureus was analyzed, and the results are shown in Table 4.

The test system of experiment [12] is MRSA USA300 persister cells. The experiment can be described thus: Persister killing assay. It counts as cell-based, Staphylococcus aureus. As to conditions: 16×MIC, 16 mg/L; FIG. 1. Here is the method: (§2) The number of viable bacteria in broth after each exposure period was enumerated by a cfu assay and expressed as cfu/mL; the data shown are the mean±SD (standard deviation) of independent experiments. […] The number of viable bacteria in the broth after each exposure period was calculated by a cfu assay (cfu/mL); the data are shown as the mean±SD of three independent experiments (n=3 for each group). Since the standard deviation of each point is very small, the error line is not shown in each graph. The horizontal dashed line in the upper left graph and the upper right graph represents […] of the bacterial cells killed. In addition, the blank controls in FIG. 1 are shown as filled diamonds.
(§3) Bacteria were collected by centrifugation at 4000×g for 10 min at 4° C., washed with ice-cold PBS, and suspended in PBS with test agents. Controls received DMSO and ethanol vehicles at concentrations equal to those for drug-treated bacteria. At the designated times, the number of viable bacteria was assessed by serial dilution of a 100 μL aliquot bacterial suspension in PBS and then spread onto LB agar plates. After incubation at 37° C. for 18-24 hours, the number of colonies was counted and expressed as cfu/mL.

Experiment [13] concerns S. aureus NCTC8325 persister cells. The experiment can be described thus: Persister killing assay. It is filed as cell-based, Staphylococcus aureus. As to conditions: 16×MIC, 16 mg/L; FIG. 1. As to the method:
as §2, §3

Values after ≈ are worked out from the molar mass of the structure shown. Where two headings read alike, the source gives them in different places.

Regarding `CC/C=C\C/C=C\C/C=C\C/C=C\C/C=C\C/C=C\CCC(=O)O` [DHA, docosahexaenoic acid], the MIC came to 1020 µg/mL in experiment [1] (Staphylococcus aureus, agent alone, MRSA USA300 (Table 4), read-out: MIC); 1020 µg/mL in experiment [1] (Staphylococcus aureus, fatty acid alone, read-out: MIC fatty acid); 1020 µg/mL (≈ 3120 µM) in [2] (ATCC29213, agent alone); 1020 µg/mL (≈ 3120 µM) in experiment [3] (NCTC8325, agent alone); 1020 µg/mL (≈ 3120 µM) in experiment [4] (agent alone); 1020 µg/mL (≈ 3120 µM) in [5] (agent alone). For the same compound, the MIC came to 1020 µg/mL (≈ 3120 µM) in experiment [6] (agent alone); 1020 µg/mL (≈ 3120 µM) in experiment [7] (agent alone); 1020 µg/mL (≈ 3120 µM) in [8] (agent alone); 1020 µg/mL (≈ 3120 µM) in experiment [9] (agent alone); 1020 µg/mL (≈ 3120 µM) in experiment [10] (agent alone); 1020 µg/mL in experiment [11]. Further, in experiment [1] (Staphylococcus aureus, fatty acid alone, read-out: MBC fatty acid), the MBC worked out at 1020 µg/mL.

Consider `CNC(=O)c1cc(Oc2ccc(NC(=O)Nc3ccc(Cl)c(C(F)(F)F)c3)cc2)ccn1` [Sorafenib], for which the MBC in [1] (+8 mg/L DHA) was 1 µg/mL; in [1] (Staphylococcus aureus, amide compound alone, read-out: MBC) it was over 64 µg/mL. Also, the MIC is 0.5 µg/mL in [1] (+8 mg/L DHA); 0.5 µg/mL in [1] (+8 mg/L DHA, MRSA USA300 (Table 4)); over 64 µg/mL in experiment [1] (Staphylococcus aureus, amide compound alone, read-out: MIC); over 64 µg/mL in [1] (agent alone, MRSA USA300 (Table 4)); 0.5 µg/mL (≈ 1.08 µM) in [2] (ATCC29213, +8 mg/L DHA); 64 µg/mL (≈ 138 µM) in experiment [2] (ATCC29213, agent alone). Moreover, the MIC is 0.5 µg/mL (≈ 1.08 µM) in experiment [3] (NCTC8325, +8 mg/L DHA); 4 µg/mL (≈ 8.61 µM) in experiment [3] (NCTC8325, agent alone); 0.5 µg/mL (≈ 1.08 µM) in experiment [4] (+8 mg/L DHA); over 64 µg/mL in experiment [4] (agent alone); 0.5 µg/mL (≈ 1.08 µM) in [5] (+8 mg/L DHA); over 64 µg/mL in experiment [5] (agent alone). In addition, the MIC in experiment [6] (+8 mg/L DHA) was 0.5 µg/mL (≈ 1.08 µM); in experiment [6] (agent alone), over 64 µg/mL; in experiment [7] (+8 mg/L DHA), 0.5 µg/mL (≈ 1.08 µM); in experiment [7] (agent alone), over 64 µg/mL; in [8] (+8 mg/L DHA), 0.5 µg/mL (≈ 1.08 µM); in [8] (agent alone), over 64 µg/mL. Further, the minimal inhibitory concentration (MIC) in [9] (+8 mg/L DHA) is 0.5 µg/mL (≈ 1.08 µM); in [9] (agent alone), over 64 µg/mL; in experiment [10] (+8 mg/L DHA) it was 0.5 µg/mL (≈ 1.08 µM); in experiment [10] (agent alone), 32 µg/mL (≈ 68.8 µM). For the same compound, the combination effect result in experiment [1] (MIC, +8 mg/L DHA, MRSA USA300 (Table 4)) is listed as “(Syn) (Synergy (Syn) was defined as an FICI≤0.5)”; in experiment [2] (MIC, +8 mg/L DHA), “(Syn) (Synergy (Syn) was defined as an FICI≤0.5)”; in experiment [3] (MIC, +8 mg/L DHA) it was “(Syn) (Synergy (Syn) was defined as an FICI≤0.5)”; in experiment [4] (MIC, +8 mg/L DHA) it was “(Syn) (Synergy (Syn) was defined as an FICI≤0.5)”; in experiment [5] (MIC, +8 mg/L DHA), “(Syn) (Synergy (Syn) was defined as an FICI≤0.5)”; in experiment [6] (MIC, +8 mg/L DHA), “(Syn) (Synergy (Syn) was defined as an FICI≤0.5)”. Moreover, the combination effect result is “(Syn) (Synergy (Syn) was defined as an FICI≤0.5)” in [7] (MIC, +8 mg/L DHA); “(Syn) (Synergy (Syn) was defined as an FICI≤0.5)” in experiment [8] (MIC, +8 mg/L DHA); “(Syn) (Synergy (Syn) was defined as an FICI≤0.5)” in experiment [9] (MIC, +8 mg/L DHA); “(Syn) (Synergy (Syn) was defined as an FICI≤0.5)” in experiment [10] (MIC, +8 mg/L DHA).

In the case of `CN[C@H](CC(C)C)C(=O)N[C@H]1C(=O)N[C@@H](CC(N)=O)C(=O)N[C@H]2C(=O)N[C@H]3C(=O)N[C@H](C(=O)N[C@H](C(=O)O)c4cc(O)cc(O)c4-c4cc3ccc4O)[C@H](O)c3ccc(c(Cl)c3)Oc3cc2cc(c3O[C@@H]2O[C@H](CO)[C@@H](O)[C@H](O)[C@H]2O[C@H]2C[C@](C)(N)[C@H](O)[C@H](C)O2)Oc2ccc(cc2Cl)[C@H]1O` [vancomycin, reference compound], the “killing of persister cells (in words)” value in experiment [12] and in [13] was “resistant to the killing activity” throughout.

These data come from patent US20260130885A1, “ANTIMICROBIAL COMPOSITIONS, PHARMACEUTICAL COMPOSITIONS AND USE THEREOF” (priority 2022, published 2026).
